# From patent publication US12527849B2, “Apparatus for determining administration form of a composition of an engineered virus-based nanoparticle for a treatment of an autoimmune condition” (Diamante Srl, priority 2021, dated 2026)
# Key:
# MCP-1 = assay: Pro-inflammatory cytokines in sera of CIA Collagen mice (ELISA, day 58): MCP-1; format: in vivo; settings: Dexamethasone oral 1 mg/kg, 20 times between day 28 and 57
# Experimental: (§1) Critical administration 124 disclosed herein is further described below. Q5D represents administration 5 days a part. TBSV·pLIp1 and wt TBSV shown in Table 1 may include liquid form that are not sterile and stored in −20° C. TBSV·pLIp1 may be given at the dose of 50 μG/100 μL Male DBA/1J mice (8 weeks; Envigo, Italy) may be used for these studies. Mice may be housed in individual cages (two for each group) and maintained under a 12:12 light-dark cycle at 21° C.±1° C. and 50%±5% humidity. The animals may be acclimated to their environment for 1 week and had ad libitum access to tap water and standard rodent diet. All animal experiments may be complied with regulations in Italy (D.M. 116192), Europe (O.J of E.C. L 358/112/18/1986), and the United States (Animal Welfare Assurance Number A5594-01, Department of Health and Human Services, USA). […] Arthritis was assessed by using qualitative severity score system and hind paw volume (mL) measured by a plethysmometer on day 20, 22, 24, 26, 28, 30, 32, 34, 36, 38, 40, 42, 44, 46 48, 50, 52, 54, 56 and 58. Body weight was recorded on day 0, 6, 13, 16, 18, 20, 22, 24, 26, 28, 30, 32, 34, 36, 38, 40, 42, 44, 46, 50, 52, 54, 56 and 58. […]
# IL-17A = assay: Pro-inflammatory cytokines in sera of CIA Collagen mice (ELISA, day 58): IL-17A; format: in vivo; settings: Dexamethasone oral 1 mg/kg, 20 times between day 28 and 57
# Experimental: as §1
structure (smiles),measurement,setting,value
"C[C@@H]1C[C@H]2[C@@H]3CCC4=CC(=O)C=C[C@]4(C)[C@@]3(F)[C@@H](O)C[C@]2(C)[C@@]1(O)C(=O)CO [Dexamethasone, dexamethasone]","MCP-1, % of reduction vs CIA Collagen",MCP-1,30.57%
same,"IL-17A, % of reduction vs CIA Collagen",IL-17A,25.07%
